Assay results as given in ChEMBL document CHEMBL4334450, “Green synthesis, biological evaluation, molecular docking studies and 3D-QSAR analysis of novel phenylalanine linked quinazoline-4(3H)-one-sulphonamide hybrid entities distorting the malarial reductase activity in folate pathway” (Bioorg Med Chem, 2019).
≈ marks a conversion by molar mass, not a printed value.

Legend:
[1] = biological target: T1, Dihydrofolate reductase (Bos taurus, UniProt P00376); assay: Inhibition of bovine liver DHFR using FH2 as substrate incubated for 2 mins followed by substrate addition
T1 sequence (P00376 whole entry): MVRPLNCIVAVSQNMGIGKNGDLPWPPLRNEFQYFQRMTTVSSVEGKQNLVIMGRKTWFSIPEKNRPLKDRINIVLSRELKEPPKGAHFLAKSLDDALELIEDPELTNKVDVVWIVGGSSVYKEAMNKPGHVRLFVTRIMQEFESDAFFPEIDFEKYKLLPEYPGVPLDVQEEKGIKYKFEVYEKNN

[2] = tested on: Plasmodium falciparum; assay: Antimalarial activity against Plasmodium falciparum FCR3 infected in human erythrocytes by Giemsa staining analysis; type: functional, organism-based
[3] = tested on: Plasmodium falciparum; assay: Antiplasmodial activity against Plasmodium falciparum infected in human RBC assessed as reduction in parasite LDH activity by spectrophotometric assay; type: functional, organism-based
[4] = tested on: bovine liver DHFR; assay: Therapeutic index, ratio of IC50 for African green monkey Vero cells to IC50 for bovine liver DHFR; type: toxicity; details: read-out: Ratio IC50
[5] = tested on: Plasmodium falciparum; assay: Antiplasmodial activity against Plasmodium falciparum infected in human RBC […] by MTT assay; type: functional, organism-based
[6] = Therapeutic index, ratio of CC50 for human RBC to EC50 for Plasmodium falciparum infected in human RBC; type: toxicity; details: human red blood cells (RBC), read-out: Ratio CC50/EC50
[7] = tested on: Vero; assay: Cytotoxicity against African green monkey Vero cells assessed as reduction in cell viability incubated for 72 hrs by CellTiter 96 Non-radioactive Cell Proliferation Assay; type: cell-based; details: Chlorocebus sabaeus
[8] = tested on: Erythrocyte; assay: Cytotoxicity against human RBC assessed as reduction in cell viability by MTT assay; type: cell-based

CC(=O)Nc1ccc(S(=O)(=O)NC(Cc2ccccc2)c2nc3ccccc3c(=O)n2/N=C/c2ccc(C)cc2)cc1 (centres undefined)
IC50 [1]: 94.9 nM
IC50 [2]: 0.067 µg/mL (≈ 0.116 µM)
IC50 [3]: 8432 ppm
selectivity ratio [4]: 273
EC50 [5]: 1106 ppm
selectivity ratio [6]: 1670
IC50 [7]: 15 µg/mL (≈ 25.9 µM)

CC(=O)Nc1ccc(S(=O)(=O)NC(Cc2ccccc2)c2nc3ccccc3c(=O)n2/N=C/c2ccccc2)cc1 (centres undefined)
IC50 [2]: 1.28 µg/mL (≈ 2.26 µM)

CC(=O)Nc1ccc(S(=O)(=O)NC(Cc2ccccc2)c2nc3ccccc3c(=O)n2/N=C/c2ccc([N+](=O)[O-])cc2)cc1 (centres undefined)
IC50 [2]: 0.72 µg/mL (≈ 1.18 µM)

CC(=O)Nc1ccc(S(=O)(=O)NC(Cc2ccccc2)c2nc3ccccc3c(=O)n2/N=C/c2cccc([N+](=O)[O-])c2)cc1 (centres undefined)
IC50 [2]: 1.12 µg/mL (≈ 1.83 µM)

CC(=O)Nc1ccc(S(=O)(=O)NC(Cc2ccccc2)c2nc3ccccc3c(=O)n2/N=C/c2ccccc2F)cc1 (centres undefined)
IC50 [2]: 1.28 µg/mL (≈ 2.19 µM)

CC(=O)Nc1ccc(S(=O)(=O)NC(Cc2ccccc2)c2nc3ccccc3c(=O)n2/N=C/c2cccc(Cl)c2)cc1 (centres undefined)
CC50 [8]: 18850 ppm
IC50 [1]: 81.7 nM
IC50 [2]: 0.082 µg/mL (≈ 0.137 µM)
IC50 [3]: 524.8 ppm
selectivity ratio [4]: 306
EC50 [5]: 368.97 ppm
selectivity ratio [6]: 51.1
IC50 [7]: 15 µg/mL (≈ 25 µM)

CC(=O)Nc1ccc(S(=O)(=O)NC(Cc2ccccc2)c2nc3ccccc3c(=O)n2/N=C/c2ccc(Cl)cc2)cc1 (centres undefined)
IC50 [2]: 0.84 µg/mL (≈ 1.4 µM)

CC(=O)Nc1ccc(S(=O)(=O)NC(Cc2ccccc2)c2nc3ccccc3c(=O)n2/N=C/c2ccccc2Cl)cc1 (centres undefined)
IC50 [2]: 0.72 µg/mL (≈ 1.2 µM)

CCN(CC)CCCC(C)Nc1ccnc2cc(Cl)ccc12 (centres undefined) [CHLOROQUINE]
CC50 [8]: 466.66 ppm
EC50 [5]: 28.97 ppm

CC(=O)Nc1ccc(S(=O)(=O)NC(Cc2ccccc2)c2nc3ccccc3c(=O)n2/N=C/c2cccc(C)c2)cc1 (centres undefined)
IC50 [2]: 0.78 µg/mL (≈ 1.35 µM)

CC(=O)Nc1ccc(S(=O)(=O)NC(Cc2ccccc2)c2nc3ccccc3c(=O)n2/N=C/c2ccc(Br)cc2)cc1 (centres undefined)
CC50 [8]: 10575 ppm
IC50 [1]: 129 nM
IC50 [2]: 0.092 µg/mL (≈ 0.143 µM)
IC50 [3]: 96.38 ppm
selectivity ratio [4]: 181
EC50 [5]: 115.61 ppm
selectivity ratio [6]: 91.5
IC50 [7]: 15 µg/mL (≈ 23.3 µM)

COc1ccc(/C=N/n2c(C(Cc3ccccc3)NS(=O)(=O)c3ccc(NC(C)=O)cc3)nc3ccccc3c2=O)cc1 (centres undefined)
IC50 [2]: 0.72 µg/mL (≈ 1.21 µM)

COc1cccc(/C=N/n2c(C(Cc3ccccc3)NS(=O)(=O)c3ccc(NC(C)=O)cc3)nc3ccccc3c2=O)c1 (centres undefined)
IC50 [2]: 1.01 µg/mL (≈ 1.7 µM)

CC(=O)Nc1ccc(S(=O)(=O)NC(Cc2ccccc2)c2nc3ccccc3c(=O)n2/N=C/c2ccccc2Br)cc1 (centres undefined)
IC50 [2]: 0.7 µg/mL (≈ 1.09 µM)

CC(=O)Nc1ccc(S(=O)(=O)NC(Cc2ccccc2)c2nc3ccccc3c(=O)n2/N=C/c2cccc(O)c2)cc1 (centres undefined)
IC50 [2]: 1.24 µg/mL (≈ 2.13 µM)

CC(=O)Nc1ccc(S(=O)(=O)NC(Cc2ccccc2)c2nc3ccccc3c(=O)n2/N=C/c2cccc(F)c2)cc1 (centres undefined)
CC50 [8]: 58408 ppm
IC50 [1]: 49.7 nM
IC50 [2]: 0.084 µg/mL (≈ 0.144 µM)
IC50 [3]: 4672 ppm
selectivity ratio [4]: 517
EC50 [5]: 2831 ppm
selectivity ratio [6]: 20.6
IC50 [7]: 15 µg/mL (≈ 25.7 µM)

CC(=O)Nc1ccc(S(=O)(=O)NC(Cc2ccccc2)c2nc3ccccc3c(=O)n2/N=C/c2cccc(Br)c2)cc1 (centres undefined)
IC50 [2]: 0.92 µg/mL (≈ 1.43 µM)

COc1ccccc1/C=N/n1c(C(Cc2ccccc2)NS(=O)(=O)c2ccc(NC(C)=O)cc2)nc2ccccc2c1=O (centres undefined)
IC50 [2]: 1.05 µg/mL (≈ 1.77 µM)

CC(=O)Nc1ccc(S(=O)(=O)NC(Cc2ccccc2)c2nc3ccccc3c(=O)n2/N=C/c2ccc(O)cc2)cc1 (centres undefined)
IC50 [2]: 0.68 µg/mL (≈ 1.17 µM)

CC(=O)Nc1ccc(S(=O)(=O)NC(Cc2ccccc2)c2nc3ccccc3c(=O)n2/N=C/c2ccccc2C)cc1 (centres undefined)
IC50 [2]: 1.26 µg/mL (≈ 2.17 µM)

C=C[C@H]1CN2CC[C@H]1C[C@H]2[C@H](O)c1ccnc2ccc(OC)cc12 [QUININE]
IC50 [2]: 0.268 µg/mL (≈ 0.826 µM)

CC(=O)Nc1ccc(S(=O)(=O)NC(Cc2ccccc2)c2nc3ccccc3c(=O)n2/N=C/c2ccccc2O)cc1 (centres undefined)
IC50 [2]: 0.78 µg/mL (≈ 1.34 µM)

CC(=O)Nc1ccc(S(=O)(=O)NC(Cc2ccccc2)c2nc3ccccc3c(=O)n2/N=C/c2ccccc2[N+](=O)[O-])cc1 (centres undefined)
IC50 [2]: 1.52 µg/mL (≈ 2.49 µM)

CC(=O)Nc1ccc(S(=O)(=O)NC(Cc2ccccc2)c2nc3ccccc3c(=O)n2/N=C/c2ccc(F)cc2)cc1 (centres undefined)
CC50 [8]: 29330 ppm
IC50 [1]: 61.7 nM
IC50 [2]: 0.067 µg/mL (≈ 0.115 µM)
IC50 [3]: 3402 ppm
selectivity ratio [4]: 417
EC50 [5]: 1909 ppm
selectivity ratio [6]: 15.4
IC50 [7]: 15 µg/mL (≈ 25.7 µM)
